Results reported in patent publication US12604900B2, “Penflufen as a wood preservative against wood- destroying basidiomy cetes” (LANXESS Deutschland GmbH, priority 2010, dated 2026).
Where two headings read alike, the source gives them in different places. One block for each compound: values may come before it.

Key:
Coriolus versicolor [1] = assay: Synergism test (MIC of radial hyphae growth, SI by Kull); assay type: cell-based; details: Trametes versicolor
Description: (§1) Mycelium pieces were punched out of a colony of the wood-destroying fungus in question and incubated on a malt extract/peptone-containing nutrient agar at 26° C. The growth of the hyphae with and without active compound was compared. The minimum inhibitory concentration (MIC) stated was the concentration at which the radial hyphae growth was suppressed completely.
(§2) The synergism was determined using the method described by Kull et al. (F. C. Kull, P. C. Eismann, H. D. Sylvestrowicz, R. L. Mayer, Applied Microbiology 1961, 9, 538-541).

Gloeophyllum trabeum [2] = assay: Inhibition test with giant colonies of wood-destroying basidiomycetes; assay type: cell-based; details: 168 h, 1 ppm active compound, agar, 26° C., about 1 week
Description: (§3) Mycelium pieces were punched out of colonies of Coniophora puteana, Poria placenta, Lentinus tigrinus, Coriolus versicolor and Gloeophyllum trabeum and incubated on an agar nutrient soil at 26° C. The inhibition of the growth of the hyphae on active compound-comprising nutrient soil was compared to the longitudinal growth without addition of active compound and rated as inhibition in percent (incubation time: about 1 week, depending on the fungal growth of the comparative sample without active compound).

Poria placenta [3] = assay: as above; assay type: cell-based; details: 168 h; 1 ppm active compound, agar, 26° C., about 1 week
Description: as §3

Coniophora puteana [4] = assay: as above; assay type: cell-based; details: 168 h, 1 ppm active compound, agar, 26° C., about 1 week
Description: as §3

Lentinus tigrinus [5] = assay: as above; assay type: cell-based; details: 168 h, 1 ppm active compound, agar, 26° C., about 1 week
Description: as §3

Coriolus versicolor [6] = assay: as above; assay type: cell-based; details: Trametes versicolor, 168 h; 1 ppm active compound, agar, 26° C., about 1 week
Description: as §3

Poria placenta [7] = assay: Synergism test (MIC of radial hyphae growth, SI by Kull); assay type: cell-based
Description: as §1, §2

Coniophora puteana [8] = assay: as above; assay type: cell-based
Description: as §1, §2

Lentinus tigrinus [9] = assay: as above; assay type: cell-based; details: read-out: MIC (ppm) Lentinus tigrinus
Description: as §1, §2

Gloeophyllum trabeum [10] = assay: as above; assay type: cell-based; details: 2.3 penflufen and copper(II) oxide, read-out: MIC against Gloeophyllum trabeum (ppm)
Description: Mycelium pieces were punched out of a colony of the wood-destroying fungus in question and incubated on a malt extract/peptone-containing nutrient agar at 26° C. […] The minimum inhibitory concentration (MIC) stated was the concentration at which the radial hyphae growth was suppressed completely.

Coniophora puteana [11] = assay: Activity test analogously to EN113 on drenched pine specimens; details: for Loss of mass [%]: pine, 6 weeks, mean of 6 specimens (untreated: 24)
Description: (§4) Penflufen (I) was tested analogously to the EN113 standard test for activity against wood-destroying fungi. In contrast to the standard test, smaller pieces of wood were used and the pieces of wood were exposed to attack by the fungi for a shorter period of time.
(§5) To this end, dried test specimen (25×15×4 mm) made of pine (Pinus sylvestris) were in each case vacuum-drenched with solutions of penflufen (I) in toluene. From the concentration of penflufen (I) in the drench solution and the uptake of the drench solution into the test specimen, the amount of active compound taken up by the test specimen (retention) was calculated. The test specimens were dried and then weighed. To prevent falsifying colonisation by foreign pathogens, the test specimen were sterilised with y rays.
The test specimens were brought into contact with the wood-destroying organism Coniophora puteana and stored for 6 weeks. The test pieces of wood were then cleaned, dried and weighed. This was used to calculate the loss of mass. For each retention, the mean of 6 test specimens was determined.

Poria placenta [12] = assay: as above; details: for Loss of mass [%]: pine, 6 weeks, mean of 6 specimens (untreated: 20)
Description: as §4, §5
The test specimen were brought into contact with the wood-destroying organism Poria placenta and stored for 6 weeks. The test pieces of wood were then cleaned, dried and weighed. This was used to calculate the loss of mass. For each retention, the mean of 6 test specimens was determined.

Stereum sanguinolentum = assay: Synergism test (MIC of radial hyphae growth, SI by Kull); assay type: cell-based; details: 2.4 penflufen and tebuconazole, read-out: MIC against Stereum sanguinolentum (ppm)
Description: as §1, §2

[13] = 2.9 penflufen and bifenthrin, read-out: MIC against Coriolus versicolor (ppm)
[14] = 2.2 penflufen and fenpropimorph, read-out: MIC (ppm) Coniophora puteana
[15] = 2.2 penflufen and fenpropimorph
[16] = result in words, EN113-like test
[17] = retention of penflufen 50 g/m^3
[18] = 2.6 penflufen and permethrin, read-out: MIC against Poria placenta (ppm)
[19] = 2.5 penflufen and propiconazole, read-out: MIC against Coniophora puteana (ppm)
[20] = 2.1 penflufen and thiabendazole, malt extract/peptone agar 26° C., read-out: MIC against Coriolus versicolor (ppm)

SMILES: Cc1c(COC(=O)[C@@H]2[C@H](/C=C(\Cl)C(F)(F)F)C2(C)C)cccc1-c1ccccc1 (racemic) [bifenthrin, reference compound]
MIC (Coriolus versicolor [1]; [13]): 60 µg/mL

SMILES: C=C(c1ccccc1NC(=O)c1c(C)nn(C)c1F)C(C)C [III]
inhibition at 1 ppm (Gloeophyllum trabeum [2]): 18%
inhibition at 1 ppm (Poria placenta [3]): 45%
inhibition at 1 ppm (Coniophora puteana [4]): 25%
inhibition at 1 ppm (Lentinus tigrinus [5]): 37%
inhibition at 1 ppm (Coriolus versicolor [6]): 78%

SMILES: CCCC(C)c1ccccc1NC(=O)c1c(C)nn(C)c1F (stereo not shown) [II]
inhibition at 1 ppm (Gloeophyllum trabeum [2]): 11%
inhibition at 1 ppm (Poria placenta [3]): 3%
inhibition at 1 ppm (Coniophora puteana [4]): 12%
inhibition at 1 ppm (Lentinus tigrinus [5]): 17%
inhibition at 1 ppm (Coriolus versicolor [6]): 15%

SMILES: CC1(C)C(C=C(Cl)Cl)C1C(=O)OC(C#N)c1cccc(Oc2ccccc2)c1 (stereo not shown) [cypermethrin, reference compound]
MIC (Poria placenta [7]; read-out: MIC (ppm) Poria placenta): > 100 µg/mL
MIC (Coriolus versicolor [1]; read-out: MIC (ppm) Coriolus versicolor): > 100 µg/mL

SMILES: CCOc1ccc(C(C)(C)COCc2cccc(Oc3ccccc3)c2)cc1 [etofenprox, reference compound]
MIC (Poria placenta [7]; 2.7 penflufen and etofenprox, read-out: MIC against Poria placenta (ppm)): > 100 µg/mL

SMILES: CC(Cc1ccc(C(C)(C)C)cc1)CN1C[C@@H](C)O[C@@H](C)C1 (stereo partly shown) [fenpropimorph, reference compound]
MIC (Coniophora puteana [8]; [14]): 30 µg/mL
MIC (Lentinus tigrinus [9]; [15]): 30 µg/mL

MIC (Gloeophyllum trabeum [10]): 0.3 µg/mL
MIC (Poria placenta [7]; 2.10 penflufen and cypermethrin, read-out: MIC (ppm) Poria placenta): 0.1 µg/mL
MIC (Poria placenta [7]; [18]): 0.1 µg/mL
MIC against Poria placenta (ppm) (Poria placenta [7]; 2.7 penflufen and etofenprox): 0.1 ppm
MIC (Coniophora puteana [8]; [14]): 1 µg/mL
MIC (Coniophora puteana [8]; [19]): 3 µg/mL
MIC (Coniophora puteana [8]; 2.8 penflufen and prochloraz, read-out: MIC (ppm) Coniophora puteana): 3 µg/mL
MIC (Lentinus tigrinus [9]; [15]): 0.5 µg/mL
MIC (Lentinus tigrinus [9]; 2.8 penflufen and prochloraz): 0.3 µg/mL
MIC (Stereum sanguinolentum): 3 µg/mL
MIC (Coriolus versicolor [1]; 2.10 penflufen and cypermethrin, read-out: MIC (ppm) Coriolus versicolor): 0.1 µg/mL
MIC (Coriolus versicolor [1]; [20]): 0.3 µg/mL
MIC (Coriolus versicolor [1]; [13]): 0.1 µg/mL
SMILES: Cc1nn(C)c(F)c1C(=O)Nc1ccccc1C(C)CC(C)C (stereo not shown) [penflufen]
activity against the wood-destroying fungus Coniophora puteana (Coniophora puteana [11]; [16]): very good activity
Loss of mass [%] (Coniophora puteana [11]; [17]): 0%
Loss of mass [%] (Coniophora puteana [11]; retention of penflufen 103 g/m^3): 0%
activity against the wood-destroying fungus Poria placenta (Poria placenta [12]; [16]): very good activity
Loss of mass [%] (Poria placenta [12]; [17]): 0%
Loss of mass [%] (Poria placenta [12]; retention of penflufen 102 g/m^3): 0%
inhibition at 1 ppm (Gloeophyllum trabeum [2]): 100%
inhibition at 1 ppm (Poria placenta [3]): 100%
inhibition at 1 ppm (Coniophora puteana [4]): 100%
inhibition at 1 ppm (Lentinus tigrinus [5]): 100%
inhibition at 1 ppm (Coriolus versicolor [6]): 100%

SMILES: CC1(C)C(C=C(Cl)Cl)C1C(=O)OCc1cccc(Oc2ccccc2)c1 (stereo not shown) [permethrin, reference compound]
MIC (Poria placenta [7]; [18]): > 100 µg/mL

SMILES: CCCN(CCOc1c(Cl)cc(Cl)cc1Cl)C(=O)n1ccnc1 [prochloraz, reference compound]
MIC (Coniophora puteana [8]; read-out: MIC (ppm) Coniophora puteana): > 30 µg/mL
MIC (Lentinus tigrinus [9]): 20 µg/mL

SMILES: CCCC1COC(Cn2cncn2)(c2ccc(Cl)cc2Cl)O1 (stereo not shown) [propiconazole, reference compound]
MIC (Coniophora puteana [8]; [19]): 3 µg/mL

SMILES: CC(C)(C)C(O)(CCc1ccc(Cl)cc1)Cn1cncn1 (stereo not shown) [tebuconazole, reference compound]
MIC (Stereum sanguinolentum): 6 µg/mL

MIC (Coriolus versicolor [1]; [20]): 3 µg/mL
SMILES: c1ccc2[nH]c(-c3cscn3)nc2c1 [thiabendazole, reference compound]
